Patent US20220323425A1, “CO-POTENTIATORS FOR THERAPY OF CYSTIC FIBROSIS CAUSED BY MINIMAL FUNCTION CFTR MUTANTS” (THE REGENTS OF THE UNIVERSITY OF CALIFORNIA, priority 2019, published 2022)

Assays:
Q1313X-CFTR = biological target: T1, Q1313X-CFTR (Homo sapiens, UniProt P13569); experiment: Short-circuit current in FRT cells expressing Q1313X-CFTR; format: cell-based; details: 20 μM ASP-11 with 5 μM VX-770, 20 μM forskolin
T1 construct: several truncated forms of CFTR resulting from premature termination codons (PTCs) located in NBD2; expressed in transfected cells; host or cells: FRT cells, pIRESpuro3 vector, puromycin-selected clonal lines
Protocol: (§1) Short-circuit current was measured on cells cultured on permeable supports (Corning) as described (Haggie, 2017; Phuan, 2018). For FRT cells, the basolateral membrane was permeabilized with 250 μg/mL amphotericin B, and experiments were done using a HCO3^−-buffered system (in mM: 120 NaCl, 5 KCl, 1 MgCl2, 1 CaCl2), 5 Hepes, 25 NaHCO3, 10 glucose, pH 7.4) with a basolateral to apical chloride gradient (60 mM NaCl replaced by sodium gluconate in the apical solution). For human airway epithelial cells, symmetrical HCO3^−-buffered solutions (containing 120 mM NaCl) were used. Cells were equilibrated with 95% O2, 5% CO2 and maintained at 37° C. Hemichambers were connected to a DVC-1000 voltage clamp (World Precision Instruments Inc., Sarasota, Fla.) via Ag/AgCl electrodes and 3 M KCl agar bridges for recording of the short-circuit current.
(§2) GraphPad Prism software (GraphPad Inc., San Diego, Calif., USA) was used for statistical analysis. EC50 values were determined by non-linear regression to a single-site inhibition model. Statistical significance was determined using unpaired Student's t test, with P<0.05 considered significant.

S492F-CFTR = biological target: T2, S492F-CFTR (Homo sapiens, UniProt P13569, S492F); experiment: Short-circuit current in FRT cells expressing S492F-CFTR; format: cell-based; details: 20 μM forskolin, 5 μM VX-770, 20 μM ASP-11, 3 μM VX-809 pretreatment
T2 construct: host or cells: FRT cells
Protocol: as §1

R334W = biological target: T3, R334W (Homo sapiens, UniProt P13569, R334W); experiment: Short-circuit current in FRT cells expressing R334W-CFTR; format: cell-based; details: 20 μM forskolin, 5 μM VX-770, 20 μM ASP-11
T3 construct: host or cells: FRT cells
Protocol: as §1

V520F = biological target: T4, V520F (Homo sapiens, UniProt P13569, V520F); experiment: Short-circuit current in FRT cells expressing V520F-CFTR; format: cell-based; details: 20 μM forskolin, 5 μM VX-770, 20 μM ASP-11
T4 construct: host or cells: FRT cells
Protocol: as §1

R560T = biological target: T5, R560T (Homo sapiens, UniProt P13569, R560T); experiment: Short-circuit current in FRT cells expressing R560T-CFTR; format: cell-based; details: 20 μM forskolin, 5 μM VX-770, 20 μM ASP-11
T5 construct: host or cells: FRT cells
Protocol: as §1

L1077P = biological target: T6, L1077P (Homo sapiens, UniProt P13569, L1077P); experiment: Short-circuit current in FRT cells expressing L1077P-CFTR; format: cell-based; details: 20 μM forskolin, 5 μM VX-770, 20 μM ASP-11
T6 construct: host or cells: FRT cells
Protocol: as §1

M1101K = biological target: T7, M1101K (Homo sapiens, UniProt P13569, M1101K); experiment: Short-circuit current in FRT cells expressing M1101K-CFTR; format: cell-based; details: 20 μM forskolin, 5 μM VX-770, 20 μM ASP-11
T7 construct: host or cells: FRT cells
Protocol: as §1

R1162X-CFTR = biological target: T8, R1162X-CFTR (Homo sapiens, UniProt P13569); experiment: Short-circuit current in FRT cells expressing R1162X-CFTR; format: cell-based; details: 20 μM forskolin, 5 μM VX-770, 20 μM ASP-11, 3 μM VX-809
T8 construct: the C-terminus PTC mutant R1162X-CFTR (predicted to truncate CFTR just after MSD2); host or cells: FRT cells
Protocol: as §1

W1282L-CFTR = biological target: T9, W1282L-CFTR (Homo sapiens, UniProt P13569, W1282L); experiment: Short-circuit current in FRT cells expressing W1282L-CFTR; format: cell-based; details: predicted W1282X read-through product
T9 construct: introduced into full-length CFTR cDNA in the vector pcDNA3.1/Zeo (+); expressed in transfected cells; host or cells: FRT cells, pIRESpuro3 vector, puromycin-selected clonal lines
Protocol: (§3) Compounds that promote read-through of PTCs to generate full-length CFTR have shown limited efficacy in cell culture studies (14-16). Though the read-through drug ataluren (PTC124) was ineffective in clinical trials (17), newer compounds are in development. The ability of ASP-11 to activate chloride current in predicted W1282X-CFTR read-through products was investigated. […] FRT cell lines were generated that stably expressing W1282L-, W1282C- and W1282R-CFTR.
as §1

W1282C-CFTR = biological target: T10, W1282C-CFTR (Homo sapiens, UniProt P13569, W1282C); experiment: Short-circuit current in FRT cells expressing W1282C-CFTR; format: cell-based; details: predicted W1282X read-through product
T10 construct: introduced into full-length CFTR cDNA in the vector pcDNA3.1/Zeo (+); expressed in transfected cells; host or cells: FRT cells, pIRESpuro3 vector, puromycin-selected clonal lines
Protocol: as §3, §1

W1282X-CFTR = biological target: T11, W1282X-CFTR (Homo sapiens, UniProt P13569); details: ASP-11 in combination with VX-770; truncated W1282X-CFTR product (CFTR1281); cited from earlier work
T11 construct: CFTR1281 (the truncation product generated by W1282X-CFTR); expressed in transfected cells

G551D-CFTR = G551D-CFTR (Homo sapiens, UniProt P13569, G551D); details: cited from earlier work
N1303K-CFTR [1] = biological target: T12, N1303K-CFTR (Homo sapiens, UniProt P13569, N1303K); experiment: Short-circuit current in FRT cells expressing N1303K-CFTR; format: cell-based; design: expressed in transfected cells; host or cells: Fischer rat thyroid (FRT) cells
Protocol: as §1, §2
Co-potentiator efficacy was initially determined by short-circuit current measurements in FRT cells expressing N1303K-CFTR in the presence of a transepithelial chloride gradient and with permeabilization of the basolateral cell membrane such that measured current directly reports CFTR channel activity. […] We previously defined potentiators as either class I compounds, including VX-770 and GLPG1837, or class II compounds such as the arylsulphonamide-pyrrolopyridine and spiro[piperidine-4,1-pyrido[3,4-b]indole] copotentiators that probably bind at distinct sites on CFTR. N1303K-CFTR expressing FRT cells treated with forskolin and GLPG1837 had similar 2i co-potentiator EC50 of 0.8±0.2 μM (FIG. 7B).

N1303K-CFTR [2] = biological target: T12, N1303K-CFTR; design: expressed in transfected cells; host or cells: Fischer rat thyroid (FRT) cells; details: ASP-11 in combination with VX-770; transfected FRT cells; cited from earlier work
I1234del-CFTR = I1234del-CFTR (Homo sapiens, UniProt P13569, DEL1234-1239); experiment: Short-circuit current in FRT cells expressing I1234del-CFTR; format: cell-based; design: introduced into full-length CFTR cDNA in the vector pcDNA3.1/Zeo (+); expressed in transfected cells; host or cells: FRT cells, pIRESpuro3 vector, puromycin-selected clonal lines; details: 20 μM ASP-11 with 5 μM VX-770, 20 μM forskolin
Protocol: as §1, §2
Compound 2i was also tested on a second minimal function CFTR mutation, I1234del-CFTR, which is generated by the c.3700A>G mutation that results in deletion of 6 amino acids from the CFTR polypeptide (p.Ile1234_Arg1239del-CFTR, hereafter termed I1234del-CFTR) due to introduction of a cryptic splice site in the CFTR transcript.

T12 sequence (P13569 whole entry N1303K): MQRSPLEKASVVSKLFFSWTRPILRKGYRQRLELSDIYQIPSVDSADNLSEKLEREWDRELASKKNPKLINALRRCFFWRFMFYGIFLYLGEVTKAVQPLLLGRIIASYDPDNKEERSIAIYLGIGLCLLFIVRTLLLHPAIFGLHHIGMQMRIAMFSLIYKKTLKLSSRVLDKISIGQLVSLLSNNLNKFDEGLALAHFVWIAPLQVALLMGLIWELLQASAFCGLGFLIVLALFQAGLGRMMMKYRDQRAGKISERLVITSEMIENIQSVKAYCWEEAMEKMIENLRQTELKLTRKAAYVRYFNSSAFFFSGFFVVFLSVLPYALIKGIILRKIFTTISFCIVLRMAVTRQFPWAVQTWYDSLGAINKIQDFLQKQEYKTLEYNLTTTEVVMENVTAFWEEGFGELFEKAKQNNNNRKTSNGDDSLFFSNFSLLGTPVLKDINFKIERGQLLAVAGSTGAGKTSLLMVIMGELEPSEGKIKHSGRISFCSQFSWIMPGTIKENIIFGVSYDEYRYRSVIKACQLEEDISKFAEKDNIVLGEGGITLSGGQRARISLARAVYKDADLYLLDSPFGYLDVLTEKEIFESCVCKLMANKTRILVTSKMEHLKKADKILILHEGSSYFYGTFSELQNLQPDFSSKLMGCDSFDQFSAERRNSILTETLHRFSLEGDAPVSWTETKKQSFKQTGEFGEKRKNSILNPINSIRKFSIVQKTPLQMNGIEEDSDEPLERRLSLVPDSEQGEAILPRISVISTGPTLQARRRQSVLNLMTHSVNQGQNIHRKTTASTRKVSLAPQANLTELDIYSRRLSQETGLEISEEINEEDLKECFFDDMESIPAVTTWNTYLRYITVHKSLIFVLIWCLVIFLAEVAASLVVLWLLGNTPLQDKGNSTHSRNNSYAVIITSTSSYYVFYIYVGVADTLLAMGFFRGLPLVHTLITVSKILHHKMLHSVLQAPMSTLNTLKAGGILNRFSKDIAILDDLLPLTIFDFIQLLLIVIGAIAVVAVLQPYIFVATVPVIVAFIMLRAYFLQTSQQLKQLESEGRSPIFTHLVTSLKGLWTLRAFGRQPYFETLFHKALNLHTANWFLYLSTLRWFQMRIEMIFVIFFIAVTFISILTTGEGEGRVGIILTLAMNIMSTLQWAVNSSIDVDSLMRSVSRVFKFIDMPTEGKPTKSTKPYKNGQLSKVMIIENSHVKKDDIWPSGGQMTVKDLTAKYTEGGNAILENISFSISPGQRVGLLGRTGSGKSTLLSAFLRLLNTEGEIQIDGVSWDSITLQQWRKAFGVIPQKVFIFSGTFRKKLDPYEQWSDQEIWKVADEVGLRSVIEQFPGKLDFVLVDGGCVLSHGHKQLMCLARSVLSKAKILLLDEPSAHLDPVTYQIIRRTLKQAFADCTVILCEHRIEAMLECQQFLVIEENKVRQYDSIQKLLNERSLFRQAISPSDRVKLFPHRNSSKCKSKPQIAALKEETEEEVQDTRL
G551D-CFTR, sequence (P13569 whole entry G551D): as the sequence (P13569 whole entry N1303K) above, with G551D, K1303N counted along it
T2 sequence (P13569 whole entry S492F): as the sequence (P13569 whole entry N1303K) above, with S492F, K1303N counted along it
T4 sequence (P13569 whole entry V520F): as the sequence (P13569 whole entry N1303K) above, with V520F, K1303N counted along it
I1234del-CFTR, sequence (P13569 with tags, fused parts or gaps DEL1234-1239): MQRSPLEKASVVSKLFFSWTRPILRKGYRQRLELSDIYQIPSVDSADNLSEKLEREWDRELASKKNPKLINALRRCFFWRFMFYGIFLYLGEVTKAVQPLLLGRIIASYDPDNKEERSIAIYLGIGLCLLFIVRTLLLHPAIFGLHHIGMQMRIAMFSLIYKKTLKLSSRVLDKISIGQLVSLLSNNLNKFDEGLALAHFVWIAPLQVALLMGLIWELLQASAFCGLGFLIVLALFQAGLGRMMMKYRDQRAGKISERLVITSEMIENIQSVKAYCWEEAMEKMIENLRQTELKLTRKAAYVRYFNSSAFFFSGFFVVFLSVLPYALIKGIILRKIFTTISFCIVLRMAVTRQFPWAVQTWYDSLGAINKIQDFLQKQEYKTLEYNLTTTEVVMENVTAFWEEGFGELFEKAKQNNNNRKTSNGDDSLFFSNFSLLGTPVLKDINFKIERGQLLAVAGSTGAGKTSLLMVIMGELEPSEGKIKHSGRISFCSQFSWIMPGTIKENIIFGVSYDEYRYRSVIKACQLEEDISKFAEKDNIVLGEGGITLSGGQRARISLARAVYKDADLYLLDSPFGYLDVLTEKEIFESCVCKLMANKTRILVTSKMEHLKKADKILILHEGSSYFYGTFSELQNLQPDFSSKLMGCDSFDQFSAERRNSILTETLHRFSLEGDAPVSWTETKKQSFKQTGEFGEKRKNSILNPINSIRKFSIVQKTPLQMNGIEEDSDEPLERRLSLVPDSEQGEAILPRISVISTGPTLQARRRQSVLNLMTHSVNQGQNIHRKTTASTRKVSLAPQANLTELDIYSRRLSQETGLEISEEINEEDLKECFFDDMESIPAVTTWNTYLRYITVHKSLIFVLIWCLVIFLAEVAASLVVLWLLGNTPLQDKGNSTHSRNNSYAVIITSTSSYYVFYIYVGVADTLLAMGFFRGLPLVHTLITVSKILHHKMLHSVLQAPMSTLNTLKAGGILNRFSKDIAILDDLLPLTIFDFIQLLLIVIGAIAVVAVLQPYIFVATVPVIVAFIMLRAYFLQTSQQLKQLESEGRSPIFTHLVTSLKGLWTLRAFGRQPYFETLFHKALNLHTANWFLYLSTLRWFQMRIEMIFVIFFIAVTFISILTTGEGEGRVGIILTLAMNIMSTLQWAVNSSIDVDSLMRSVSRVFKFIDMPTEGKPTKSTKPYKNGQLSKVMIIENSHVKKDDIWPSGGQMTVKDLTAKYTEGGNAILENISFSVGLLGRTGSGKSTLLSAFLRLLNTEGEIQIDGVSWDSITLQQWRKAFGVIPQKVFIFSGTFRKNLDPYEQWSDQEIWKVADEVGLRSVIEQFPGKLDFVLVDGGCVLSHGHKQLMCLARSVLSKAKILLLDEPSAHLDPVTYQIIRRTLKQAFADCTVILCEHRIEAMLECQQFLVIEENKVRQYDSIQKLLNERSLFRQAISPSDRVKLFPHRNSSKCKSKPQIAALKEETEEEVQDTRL
T10 sequence (P13569 whole entry W1282C): as the sequence (P13569 whole entry N1303K) above, with W1282C, K1303N counted along it
T8 sequence (P13569 1-1161 limits assumed): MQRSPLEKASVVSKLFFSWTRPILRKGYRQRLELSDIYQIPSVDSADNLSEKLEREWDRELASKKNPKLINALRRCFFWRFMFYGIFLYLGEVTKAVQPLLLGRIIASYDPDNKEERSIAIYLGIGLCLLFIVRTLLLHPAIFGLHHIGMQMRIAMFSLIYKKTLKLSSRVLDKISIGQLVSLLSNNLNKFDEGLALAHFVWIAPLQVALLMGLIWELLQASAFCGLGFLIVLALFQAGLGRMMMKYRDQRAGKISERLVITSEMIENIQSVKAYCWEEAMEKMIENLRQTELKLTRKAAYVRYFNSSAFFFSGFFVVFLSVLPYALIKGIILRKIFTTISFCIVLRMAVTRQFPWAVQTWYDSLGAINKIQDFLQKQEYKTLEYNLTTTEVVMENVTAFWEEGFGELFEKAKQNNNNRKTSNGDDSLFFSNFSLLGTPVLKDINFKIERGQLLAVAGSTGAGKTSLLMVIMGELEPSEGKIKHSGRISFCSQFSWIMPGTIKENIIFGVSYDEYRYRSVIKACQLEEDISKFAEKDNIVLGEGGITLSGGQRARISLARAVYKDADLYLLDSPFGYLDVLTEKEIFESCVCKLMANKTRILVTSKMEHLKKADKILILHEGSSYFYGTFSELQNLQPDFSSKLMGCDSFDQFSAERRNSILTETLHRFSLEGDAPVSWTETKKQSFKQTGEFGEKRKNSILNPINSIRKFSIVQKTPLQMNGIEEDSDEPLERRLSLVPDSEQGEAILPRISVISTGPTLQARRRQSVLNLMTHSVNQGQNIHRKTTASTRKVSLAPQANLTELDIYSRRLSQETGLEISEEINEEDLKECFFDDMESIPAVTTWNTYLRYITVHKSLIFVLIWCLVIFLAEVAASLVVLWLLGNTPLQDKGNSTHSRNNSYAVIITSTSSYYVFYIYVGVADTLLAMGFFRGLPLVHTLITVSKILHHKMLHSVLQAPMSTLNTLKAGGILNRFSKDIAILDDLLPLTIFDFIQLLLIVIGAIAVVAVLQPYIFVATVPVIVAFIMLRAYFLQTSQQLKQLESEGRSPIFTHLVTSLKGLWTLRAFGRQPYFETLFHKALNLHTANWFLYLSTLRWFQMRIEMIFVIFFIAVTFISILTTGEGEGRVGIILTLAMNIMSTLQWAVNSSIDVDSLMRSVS
T3 sequence (P13569 whole entry R334W): as the sequence (P13569 whole entry N1303K) above, with R334W, K1303N counted along it
T5 sequence (P13569 whole entry R560T): as the sequence (P13569 whole entry N1303K) above, with R560T, K1303N counted along it
T7 sequence (P13569 whole entry M1101K): as the sequence (P13569 whole entry N1303K) above, with M1101K, K1303N counted along it
T9 sequence (P13569 whole entry W1282L): as the sequence (P13569 whole entry N1303K) above, with W1282L, K1303N counted along it
T6 sequence (P13569 whole entry L1077P): as the sequence (P13569 whole entry N1303K) above, with L1077P, K1303N counted along it

SMILES: CCCCn1cc(S(=O)(=O)Nc2ccc(CC)cc2)c2cccnc21 [ASP-11, 1-butyl-N-(4-ethylphenyl)-1H-pyrrolo[2,3-b]pyridine-3-sulfonamide]
- increase of chloride current compared to VX-770 (Q1313X-CFTR): 3-9 fold
- short-circuit current response (S492F-CFTR): no response
- short-circuit current response (R334W): absence of response
- short-circuit current response (V520F): absence of response
- short-circuit current response (R560T): absence of response
- short-circuit current response (L1077P): absence of response
- short-circuit current response (M1101K): absence of response
- short-circuit current response (R1162X-CFTR): did not respond
- short-circuit current effect additional to forskolin (W1282L-CFTR): little additional
- short-circuit current effect additional to forskolin (W1282C-CFTR): significant further effects
- increase of chloride current compared with VX-770 alone (W1282X-CFTR): ~8 fold
- improvement of chloride channel function compared with VX-770 alone (G551D-CFTR; ASP-11 in combination with VX-770): ~50%
- activation of G551D-CFTR (G551D-CFTR; previously shown): activates G551D-CFTR
- short-circuit current response when added after VX-770 (N1303K-CFTR [1]; 20 μM forskolin, 5 μM VX-770, 20 μM test potentiator): synergy
- activation by two Class II potentiators added together (N1303K-CFTR [1]; W1282Xpot-C01 and ASP-11, 20 μM each, no Class I potentiator): little activation
- increase of chloride current compared with VX-770 alone (N1303K-CFTR [2]): ~8 fold
- increase of chloride current compared to VX-770 (I1234del-CFTR): 3-9 fold
